The NIST ThermoML archive (doi:10.1021/je700281z)
“And” between values parts separate entries of the source, which are not always exact repeats. Identical values can stand only once.

Columns and labels:
[1] = xn = mol fraction of the nth substance listed; conditions: 101 kPa, Liquid
[2] = 101.33 kPa, Liquid; for speed of sound: sound analyzer

CCCCOCCOCCO [3,6-dioxa-1-decanol] + CCCCO
[1]
Conditions	mass density [kg/m3]
293.15 K, x1 = 0.1013	834.791
293.15 K, x1 = 0.1505	845.543
293.15 K, x1 = 0.2017	855.876
293.15 K, x1 = 0.2529	865.45
293.15 K, x1 = 0.3005	873.704
293.15 K, x1 = 0.3516	881.978
293.15 K, x1 = 0.4507	896.487
293.15 K, x1 = 0.5005	903.11
293.15 K, x1 = 0.5506	909.377
293.15 K, x1 = 0.6036	915.608
293.15 K, x1 = 0.6493	920.67
293.15 K, x1 = 0.7	925.984
293.15 K, x1 = 0.7292	928.912
293.15 K, x1 = 0.749	930.843
293.15 K, x1 = 0.8483	939.967
298.15 K, x1 = 0.0521	819.296
298.15 K, x1 = 0.15	841.555
298.15 K, x1 = 0.2022	852.057
298.15 K, x1 = 0.2535	861.607
298.15 K, x1 = 0.301	869.838
298.15 K, x1 = 0.3487	877.538
298.15 K, x1 = 0.4028	885.726
298.15 K, x1 = 0.4536	892.882
298.15 K, x1 = 0.6017	911.346
298.15 K, x1 = 0.6501	916.714
298.15 K, x1 = 0.7003	921.969
298.15 K, x1 = 0.7486	926.743
298.15 K, x1 = 0.7986	931.465
298.15 K, x1 = 0.8491	935.973
303.15 K, x1 = 0.0462	813.931
303.15 K, x1 = 0.0516	815.259
303.15 K, x1 = 0.1015	827.004
303.15 K, x1 = 0.1522	837.999
303.15 K, x1 = 0.2002	847.641
303.15 K, x1 = 0.2536	857.548
303.15 K, x1 = 0.3008	865.688
303.15 K, x1 = 0.3513	873.826
303.15 K, x1 = 0.3997	881.12
303.15 K, x1 = 0.4513	888.394
303.15 K, x1 = 0.5047	895.427
303.15 K, x1 = 0.552	901.283
303.15 K, x1 = 0.6546	912.925
303.15 K, x1 = 0.6992	917.561
303.15 K, x1 = 0.7074	918.41
303.15 K, x1 = 0.7476	922.362
303.15 K, x1 = 0.7976	927.051
303.15 K, x1 = 0.7988	927.176
303.15 K, x1 = 0.8959	935.611

CCOCCOCCO [3,6-dioxa-1-octanol]
[2]
Conditions	mass density [kg/m3]	speed of sound [m/s]
293.15 K	987.876	1392.3
298.15 K	983.336	1374.3
303.15 K	978.788	1356.6

CCOCCOCCO [3,6-dioxa-1-octanol] + CCCCO
[1]
Conditions	mass density
293.15 K, x1 = 0.0519	823.011 kg/m3
293.15 K, x1 = 0.1029	835.52 kg/m3
293.15 K, x1 = 0.1999	857.73 kg/m3
293.15 K, x1 = 0.2989	878.535 kg/m3
293.15 K, x1 = 0.3513	888.856 kg/m3
293.15 K, x1 = 0.4015	898.337 kg/m3
293.15 K, x1 = 0.4514	907.402 kg/m3
293.15 K, x1 = 0.5492	924.169 kg/m3
293.15 K, x1 = 0.5966	931.866 kg/m3
293.15 K, x1 = 0.65	940.215 kg/m3
293.15 K, x1 = 0.7002	947.765 kg/m3
293.15 K, x1 = 0.7009	947.885 kg/m3
293.15 K, x1 = 0.7015	947.962 kg/m3
293.15 K, x1 = 0.7952	961.375 kg/m3
293.15 K, x1 = 0.8477	968.507 kg/m3
293.15 K, x1 = 0.8489	968.677 kg/m3
293.15 K, x1 = 0.8966	974.953 kg/m3
293.15 K, x1 = 0.95	981.736 kg/m3
298.15 K, x1 = 0.0512	818.966 kg/m3
298.15 K, x1 = 0.1017	831.315 kg/m3
298.15 K, x1 = 0.1026	831.513 kg/m3
298.15 K, x1 = 0.151	842.801 kg/m3
298.15 K, x1 = 0.1733	847.84 kg/m3
298.15 K, x1 = 0.2524	864.926 kg/m3
298.15 K, x1 = 0.35	884.465 kg/m3
298.15 K, x1 = 0.4025	894.359 kg/m3
298.15 K, x1 = 0.449	902.763 kg/m3
298.15 K, x1 = 0.452	903.287 kg/m3
298.15 K, x1 = 0.4995	911.551 kg/m3
298.15 K, x1 = 0.5992	927.958 kg/m3
298.15 K, x1 = 0.6015	928.324 kg/m3
298.15 K, x1 = 0.6487	935.658 kg/m3
298.15 K, x1 = 0.7001	943.37 kg/m3
298.15 K, x1 = 0.7491	950.466 kg/m3 and 950.476 kg/m3
298.15 K, x1 = 0.8	957.603 kg/m3
298.15 K, x1 = 0.8086	958.782 kg/m3
298.15 K, x1 = 0.8491	964.231 kg/m3
298.15 K, x1 = 0.8982	970.663 kg/m3
303.15 K, x1 = 0.0507	814.94 kg/m3
303.15 K, x1 = 0.1007	827.098 kg/m3
303.15 K, x1 = 0.1488	838.296 kg/m3
303.15 K, x1 = 0.1539	839.456 kg/m3
303.15 K, x1 = 0.1998	849.635 kg/m3
303.15 K, x1 = 0.2025	850.231 kg/m3
303.15 K, x1 = 0.2526	860.864 kg/m3
303.15 K, x1 = 0.3035	871.188 kg/m3
303.15 K, x1 = 0.3042	871.343 kg/m3
303.15 K, x1 = 0.3492	880.114 kg/m3
303.15 K, x1 = 0.4027	890.141 kg/m3
303.15 K, x1 = 0.4543	899.435 kg/m3
303.15 K, x1 = 0.5504	915.759 kg/m3
303.15 K, x1 = 0.5525	916.103 kg/m3
303.15 K, x1 = 0.5539	916.33 kg/m3
303.15 K, x1 = 0.6	923.723 kg/m3
303.15 K, x1 = 0.6019	924.03 kg/m3
303.15 K, x1 = 0.7506	946.255 kg/m3
303.15 K, x1 = 0.8006	953.229 kg/m3
303.15 K, x1 = 0.8496	959.837 kg/m3
303.15 K, x1 = 0.949	972.571 kg/m3

CCCCO [butan-1-ol]
[2]
Conditions	mass density [kg/m3]	speed of sound [m/s]
293.15 K	809.644	1256.7
298.15 K	805.842	1239.2
303.15 K	801.995	1222.7
